{"source": "patent US20130071328A1", "about": "“Propynoic Acid Carbamoyl Methyl-Amides and Pharmaceutical Compositions and Methods Based Thereon” (UNIVERSITY OF SOUTHERN CALIFORNIA, priority 2011, published 2013)", "key": {"[1]": {"test_system": "HT29 colon cancer cell line", "experiment": "MTT cytotoxicity assay, HT29", "type": "cell-based", "details": "Homo sapiens, HT-29, 72 h exposure", "summary_of_the_method": "(§1)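 Cells were seeded, allowed to attach overnight, then exposed continuously to drug for 72 h. MTT (0.5 mg/mL final) was added for 4 h at 37 °C, formazan was dissolved in DMSO and absorbance read at 570 nm. IC50 came from log(drug concentration) versus percent cells killed, triplicate.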"}, "[2]": {"test_system": "HCT116 p53^+/+ colon cancer cell line", "experiment": "MTT cytotoxicity assay, HCT116 p53+/+", "type": "cell-based", "details": "Homo sapiens, HCT-116, 72 h exposure", "summary_of_the_method": "as §1"}, "[3]": {"test_system": "HCT116 p53^−/− colon cancer cell line", "experiment": "MTT cytotoxicity assay, HCT116 p53-/-", "type": "cell-based", "details": "Homo sapiens, HCT-116, 72 h exposure", "summary_of_the_method": "as §1"}, "[4]": {"test_system": "HEY ovarian cancer cell line", "experiment": "Cytotoxicity assay, HEY", "type": "cell-based", "details": "Homo sapiens; MTT, 72 h exposure (Table 2)", "summary_of_the_method": "as §1"}, "[5]": {"test_system": "UMUC3 bladder cancer cell line", "experiment": "MTT cytotoxicity assay, UMUC3", "type": "cell-based", "details": "Homo sapiens, 72 h exposure", "summary_of_the_method": "as §1"}, "[6]": {"test_system": "5637 bladder cancer cell line", "experiment": "MTT cytotoxicity assay, 5637", "type": "cell-based, human", "details": "Homo sapiens, 72 h exposure", "summary_of_the_method": "as §1"}, "[7]": {"test_system": "doxorubicin-resistant NCI/ADR-RES ovarian cancer cell line", "experiment": "Cytotoxicity assay, NCI/ADR-RES", "type": "cell-based", "details": "Homo sapiens, MTT, 72 h exposure (Table 2)", "summary_of_the_method": "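Cells attached overnight, then continuously exposed to drug for 72 h. MTT (0.5 mg/mL final) added 4 h at 37 °C, formazan dissolved in DMSO, absorbance at 570 nm, triplicates; IC50 from log concentration versus % cells killed.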"}, "[8]": {"test_system": "MDA-MB-435 cells", "experiment": "Apoptosis assay, annexin V/propidium iodide flow cytometry", "type": "cell-based, human", "protocol": "To quantify drug-induced apoptosis, annexin V/propidium iodide staining was performed and analyzed by flow cytometry. MDA-MB-435 cells were treated with 10 μM compound 1, 2, or 4 for 24 and 48 h. After treatment, both floating and adherent cells were combined and subjected to annexin V/propidium iodide staining using an annexin V-FITC apoptosis detection kit (Oncogene Research Products, San Diego, Calif.) according to manufacturer's recommendations. Untreated control cells (48 h) were maintained in parallel to drugtreated groups. Double staining was used to distinguish between viable, early apoptotic, and necrotic or late apoptotic cells. The resulting fluorescence (FITC-A channel for green fluorescence and PE-A channel for red fluorescence) was measured by flow cytometry using a BD LSRII flow cytometer (BD Biosciences, San Jose, Calif.)."}, "[9]": {"test_system": "p53", "experiment": "Western blotting of p53 protein level", "type": "cell-based, human", "details": "MDA-MB-435 cells, 1 μM, 24 to 72 hours", "protocol": "(§2) Cells were detached using 1×trypsin-EDTA solution and collected by centrifugation at 1200 rpm for 5 min. Cells were then lysed in 80 μL of 1× cell lysis buffer (50 mM Tris-HCl, pH 7.5, 150 mM NaCl, and 1% NP-40) and pelleted by centrifugation at 14,000 rpm for 20 min at 4° C. Protein concentration of the whole cell lysates was measured using BCA protein assay and equal amounts of total protein were resolved on a 10% tris-glycine gel via SDS-PAGE. The separated proteins were electro-blotted onto nitrocellulose membrane and blocked in 5% BSA/PBS for 1 h at room temperature. The membrane was probed with anti-p53 (SC-126, Santa Cruz Biotechnology Inc.), anti-caspase 9 (Cat. no. 9508; Cell Signaling Technology), anti-a-tubulin (SC-5286, Santa Cruz Biotechnology Inc.), and anti-GAPDH(Y3322GAPDH, Biochain Institute, Inc.) antibodies at 4 C overnight. Horseradish peroxidase-conjugated secondary antibodies (Invitrogen, Carlsbad, Calif.) in combination with SuperSignal Dura (ThermoFisher, Rockford, Ill.) enhanced chemiluminescence (ECL) solutions were used to visualize proteins of interest with a ChemiDoc Imaging system (Bio-Rad, Hercules, Calif.)."}, "[10]": {"test_system": "caspase-9", "experiment": "Western blotting of full-length caspase-9 protein level", "type": "cell-based, human", "details": "MDA-MB-435 cells, 1 μM, after 24 hours, maintained up to 72 hours", "protocol": "as §2"}, "[11]": {"test_system": "SOD1", "experiment": "Kinexus 628-antibody microarray", "type": "cell-based, human", "details": "MDA-MB-435 cells, 0.1 μM, 24 h", "text": "To better understand the mechanisms of action of this class of novel PACMA compounds, we subjected cell lysates from untreated and compound 1-treated MDA-MB-435 cells to the Kinexus 628-antibody microarray analysis in search of potential signaling molecules; 350 pan-specific and 270 phospho-site antibodies were included to track changes in protein expression and phosphorylation status. The cell lysates were run in parallel on the Kinexus antibody chip and the differential binding of dye-labeled proteins was detected and quantified. Proteins with significant expression changes were then identified and used as the basis for signaling pathway interpretation.\nMDA-MB-435 cells were treated with 0.1 μM compound 1 for 24 h. After treatment, cells were washed with ice-cold PBS to remove residual medium. Cells were then lysed in 200 μL of lysis buffer (20 mM MOPS, pH 7.0, 2 mM EGTA, 5 mM EDTA, 30 mM sodium fluoride, 60 mM β-glycerophosphate, pH 7.2, 20 mM sodium pyrophosphate, 1 mM sodium orthovanadate, 1 mM phenylmethylsulfonylfluoride, 3 mM benzamidine, 5 μM pepstatin A, 10 μM leupeptin, 1% Triton X-100, 1 mM dithiothreitol) and collected into a microcentrifuge tube. […] The supernatants were then transferred to a cleanmicrocentrifuge tube, and the protein concentrations were measured using BCA protein assay. […]"}, "[12]": {"test_system": "MDA-MB-435 cells", "experiment": "Mitochondrial superoxide production (MitoSOX Red)", "type": "cell-based, human", "details": "IC50 or 3×IC50, 24 hours", "protocol": "After drug treatments, a solution of 5 μM MitoSOX Red mitochondrial superoxide indicator (Invitrogen, Carlsbad, Calif.) was added, and cells were incubated for 10 min at 37° C. Cells were then washed three times with Hank's balanced salt solution (HBSS) to remove excess MitoSOX. After washing, cells were either observed under the fluorescence microscope or collected by trypsinization, washed twice with HBSS, and measured for superoxide production using a BD LSRII flow cytometer (BD Biosciences, San Jose, Calif., USA). Data were analyzed with the BD FACSDiva software package (BD Biosciences, San Jose, Calif., USA)."}}, "data": [{"smiles": "C#CC(=O)N(c1cc(OC)cc(OC)c1)C(C(=O)NC1CCCCC1)c1ccc(OC)cc1", "note": "(stereo not drawn) [Compound 1, N-[2-(Cyclohexylamino)-1-(4-methoxyphenyl)-2-oxoethyl]-N-(3,5-dimethoxyphenyl)Propynamide]", "values": [{"measurement": "IC50", "setting": "[1]", "value": "6.3 ± 1.5", "unit": "µM"}, {"measurement": "IC50", "setting": "[2]", "value": "12.5 ± 2.1", "unit": "µM"}, {"measurement": "IC50", "setting": "[3]", "value": 11, "unit": "µM"}, {"measurement": "IC50", "setting": "[4]", "value": "4.4 ± 3", "unit": "µM"}, {"measurement": "IC50", "setting": "[5]", "value": "> 20", "unit": "µM"}, {"measurement": "IC50", "setting": "[6]", "value": "2.2 ± 0.2", "unit": "µM"}, {"measurement": "IC50", "setting": "[7]", "value": 0.3, "unit": "µM"}, {"measurement": "induction of early apoptosis", "setting": "[8]; 10 μM, 24 hours", "value": "failed to induce early apoptosis"}, {"measurement": "increase in early apoptotic cells", "setting": "[8]; 10 μM, 48 h", "value": 8, "unit": "%"}, {"measurement": "percentage of late apoptotic cells", "setting": "[8]; 10 μM, 48 hours", "value": 35, "unit": "%"}, {"measurement": "induction of apoptosis", "setting": "[8]; 24 and 48 hours", "value": "induce apoptosis"}, {"measurement": "p53 protein level", "setting": "[9]", "value": "up-regulated"}, {"measurement": "decrease in full-length caspase-9 protein level", "setting": "[10]", "value": 2, "unit": "fold"}, {"measurement": "SOD1 expression", "setting": "[11]", "value": "up-regulated"}, {"measurement": "mitochondrial superoxide production, flow cytometry", "setting": "[12]", "value": "induce significant amounts of superoxide"}]}]}
